The values that follow come from article PMC11195807, “Development of a multi-targeted chemotherapeutic approach based on G-quadruplex stabilisation and carbonic anhydrase inhibition” (Journal of Enzyme Inhibition and Medicinal Chemistry, 2024).

Usually melting point stands for the temperature of the solid-liquid transition. The IC50 is the concentration at which inhibition is half-maximal.

The test system of one series is Tel23. Description: CD melting experiments, Tel23 GQ. The note with it: 2 molar equiv compound, T1/2 of DNA alone 53.5 °C. The series is classed as binding, human. The source says:
(§1) The 21 synthesised MTDLs were screened for their ability to bind to and stabilise DNA GQ-forming sequences, compared to berberine, by CD experiments. Indeed, circular dichroism has shown to be outstandingly useful and informative for noncanonical nucleic acid secondary structures. For this purpose, a G-rich 23-nucleotide truncation (23-nt) of the human telomeric sequence (Tel23) and two G-rich motifs from the promoter regions of c-KIT (c-Kit1) and c-MYC (c-Myc) oncogenes were employed. First, the overall topology adopted by each DNA sequence in K^+-containing buffer was verified by CD spectra. […] GQ conformation (Figure S1, Supporting Information). On the other hand, c-Kit1 and c-Myc sequences adopted a parallel GQ conformation, showing a distinctive positive band at around 260 nm and a negative one at ∼240 nm in their CD spectra (Figures S2 and S3, Supporting Information).
(§2) Afterwards, the GQ-stabilising properties of the molecules were assessed by CD melting experiments, measuring the differences in the apparent melting temperatures of the DNA in the presence and absence of compounds (ΔT1/2) (Figures S4–S6 and Table S2, Supporting Information). […] This could be explained by considering the higher accessibility of the external G-tetrads in the case of parallel GQs compared to the hybrid one[52], which would allow the additional CAI moiety of conjugated compounds to be better accommodated in the binding site. […] . […] .

For another series, the system named is c-Kit1. Description: CD melting experiments, c-Kit1 GQ. Type of series: binding. The following applies: 2 molar equiv compound, T1/2 of DNA alone 55.0 °C.
From the text: as §1, §2

Another series has as its system c-Myc. Description: CD melting experiments, c-Myc GQ. Type of series: binding. The note with it: 1 molar equiv compound, T1/2 of DNA alone 70.0 °C.
From the text: as §1, §2

The subject of a further series is HeLa cells. Description: MTT assay, HeLa cells in normoxia. The following applies: 48 h. Type of series: cell-based. The source says: Combining the results on carbonic anhydrase inhibition and GQ thermal stabilisation, we selected the sulphonamides S-2,0, S-4,0, S-5,0 and the coumarins C-3,2, C-4,2, C-5,2 as the most promising MTDLs to be further investigated, since able to both efficiently suppress the activity of the hCAs IX/XII and stabilise GQ structures, in vitro. Moreover, given that crystals suitable for X-ray diffraction analyses had been successfully obtained for the human telomeric DNA GQ in complex with S-3,2, we also included such sulphonamide derivative in the subsequent studies. Thus, we assessed the cytotoxicity of the selected MTDLs on CA IX-positive HeLa cells, using the MTT assay.
HeLa cells were grown in Dulbecco’s Modified Eagle’s Medium supplemented with 10% FBS, 100 U/mL penicillin, and 100 μg/mL streptomycin, at 37 °C, in a 5% CO2/95% air atmosphere. Cells were sub-cultured at 90% confluence, in the split ratio 1:8, every 3–5 days. The MTDLs used in this study, as well as the CAIs S and C, were dissolved in DMSO at 40 mM (for the sulphonamides) or 10 mM (for the coumarins) concentration. As for berberine, a 50 mM stock solution in DMSO was prepared. Each tested compound was diluted in cell culture medium to the required concentration, immediately prior to use. As regards the experiments under hypoxic conditions, an 80 mM stock solution of CoCl2 was prepared in sterile distilled water and further diluted in medium to obtain the final desired concentrations.
For the MTT experiments in the presence of normal oxygen levels, HeLa cells were seeded in 96-well plates at a density of 15,000 cells per well (culture medium volume – 100 μL/well) and incubated at 37 °C, for 24 h. The medium was then removed, and HeLa were incubated, for 48 h, with fresh medium containing increasing concentrations of MTDLs, single-target-directed agents (berberine, S, and C) or vehicle (0.5% DMSO). The MTDL C-4,2 was also tested for 12 h. As for the co-treatments, cells were co-treated for 12 h with equimolar concentrations of berberine and C. As regards the MTT experiments under hypoxic conditions, HeLa cells were seeded in 96-well plates (8,000 cells per well) and incubated overnight, pre-treated with 50 μM cobalt (II) chloride hexahydrate (CoCl2) and then, for the following 12 h, either exposed to increasing concentrations of C-4,2 or vehicle (0.5% DMSO), or co-treated with equimolar concentrations of berberine and C. Each condition was assayed in triplicate. At the end of the treatments, 10 µL of MTT reagent were added to each well, at a final concentration of 0.5 mg/mL, and the plates were incubated at 37 °C for 4 h. To dissolve the resulting purple formazan crystals, 100 μL of the solubilisation solution were added into each well and the plates were allowed to stand overnight in the incubator (37 °C, 5% CO2/95% air). Finally, the optical density of the samples (at 570 nm) was measured on an ELx800 Absorbance Microplate Reader (BioTek Instruments, Inc., Winooski, VT, USA). The percentage (%) of cell survival for each condition was calculated by using the following equation: % cell survival=OD− OD0/ODCONTROL− OD0×100 where OD is the optical density of the sample, OD0 is the optical density of the background signal, and ODCONTROL is the optical density of the control sample (cells treated with vehicle, 0.5% DMSO). The concentration able to reduce by 50% the cellular viability (IC50) was calculated, for each investigated compound, using Prism 8.0.2 (GraphPad, San Diego, CA, USA) and plotting the percentage of cell survival versus the compound concentration (µM).
(In general: Tetrazolium assays rely on reduction of a dye to a coloured formazan, in cell work by metabolically active cells.)

The next series deals with Hairpin. Description: CD melting experiments, hairpin DNA duplex. The following applies: 2 molar equiv compound, T1/2 of DNA alone 66.0 °C.

Molecules are shown by their SMILES. Where a name gives a salt, the structure may show the parent alone.

Method for Hairpin: To evaluate the possible binding and stabilisation of double-stranded DNA, a 27-nt long hairpin-forming sequence (Hairpin) was employed.
In particular, the following DNA sequences were synthesised and employed for the experiments: d([sequence]) (c-Kit1), d([sequence]) (c-Myc), d([sequence]) (Tel23), and d([sequence]) (Hairpin). Oligonucleotides were dissolved in the proper buffer and their concentration was measured by UV absorption at 90 °C, as previously reported[80]^,[81]. To achieve the correct folding of the sequences, the DNA solutions were heated in a water bath at 90 °C for 5 min, and then allowed to cool slowly to room temperature overnight. Then, DNA samples were stored at 4 °C for 24 h, before data acquisition.
The samples were prepared by dissolving the oligonucleotides in 5 mM KH2PO4/K2HPO4 buffer (pH 7.0) containing 20 mM KCl (or LiCl in the case of c-Myc because of its high thermal stability). DNA concentrations of 20 µM for GQs and 30 µM for Hairpin were used. For each compound, a 10 mM stock solution in 100% DMSO was prepared. […] CD spectra were acquired at 20 and 100 °C, in the 230–320 nm wavelength range, averaged over three scans and subtracted of the buffer baseline. The scanning speed was set to 100 nm/min, with a 0.5 s response time, and 1 nm bandwidth. CD melting experiments were carried out in the 20–100 °C temperature range, with 1 °C/min heating rate, by following changes in the CD signal at the wavelengths of the maximum CD intensity (i.e. 263 nm for c-Kit1 and c-Myc, and 290 nm for Tel23). As for Hairpin, CD melting curves were recorded by following the changes in the CD signal at 252 nm (the wavelength of the minimum CD intensity). CD melting curves were normalised between 0 and 1. […] The ΔT1/2 values correspond to the difference in the T1/2 values of the nucleic acid structures in the presence and absence of the compounds. All experiments were performed in duplicate, and the reported values are the mean of the two measurements.

For the molecule `COc1ccc2cc3[n+](cc2c1OCc1cn(CCCCOc2ccc4ccc(=O)oc4c2)nn1)CCc1cc2c(cc1-3)OCO2` (as salt: phosphate) [Compound 43, 10-Methoxy-9-((1–(4-((2-oxo-2H-chromen-7-yl)oxy)butyl)-1H-1,2,3-triazol-4-yl)methoxy)-5,6-dihydro-[1,3]dioxolo[4,5-g]isoquinolino[3,2-a]isoquinolin-7-ium hexafluorophosphate], the melting point fell in the range of 124 to 125 °C.

In turn, `COc1ccc2cc3[n+](cc2c1OCCCCCn1cc(-c2ccc(S(N)(=O)=O)cc2)nn1)CCc1cc2c(cc1-3)OCO2` (as salt: phosphate) [Compound 32, 10-Methoxy-9-((5–(4-(4-sulfamoylphenyl)-1H-1,2,3-triazol-1-yl)pentyl)oxy)-5,6-dihydro-[1,3]dioxolo[4,5-g]isoquinolino[3,2-a]isoquinolin-7-ium hexafluorophosphate] had a melting point of 200 to 202 °C.

With `COc1ccc2cc3[n+](cc2c1OCc1cn(CCCOc2ccc4ccc(=O)oc4c2)nn1)CCc1cc2c(cc1-3)OCO2` (as salt: phosphate) [Compound 42, 10-Methoxy-9-((1–(3-((2-oxo-2H-chromen-7-yl)oxy)propyl)-1H-1,2,3-triazol-4-yl)methoxy)-5,6-dihydro-[1,3]dioxolo[4,5-g]isoquinolino[3,2-a]isoquinolin-7-ium hexafluorophosphate], the melting point lay in the range of 117 to 118 °C.

On to `COc1ccc2cc3[n+](cc2c1OC)CCc1cc2c(cc1-3)OCO2` [Berberine, berberine, reference compound], for which, in the series on Tel23, the “ΔT1/2 Tel23” value came to 9.5 °C. In addition, the “ΔT1/2 c-Kit1” value in the series on c-Kit1 came out at 13.0 °C. Also, the “ΔT1/2 c-Myc” value in the series with c-Myc is 12.0 °C. The “effect on HeLa cell viability (in words)” value with HeLa cells (increasing concentrations) is listed as “good dose-dependent cytotoxic effect”. In addition, the IC50 in the series on HeLa cells (Homo sapiens, normoxia, read-out: IC50 (50% of cell viability reduction), MTT assay) came out at 75 µM. In the series with Hairpin, the “ΔT1/2 Hairpin” value was “+0.2 °C”.

For the molecule `COc1ccc2cc3[n+](cc2c1OCCCn1cc(COc2ccc(S(N)(=O)=O)cc2)nn1)CCc1cc2c(cc1-3)OCO2` (as salt: phosphate) [Compound 29, 10-Methoxy-9–(3-(4-((4-sulfamoylphenoxy)methyl)-1H-1,2,3-triazol-1-yl)propoxy)-5,6-dihydro-[1,3]dioxolo[4,5-g]isoquinolino[3,2-a]isoquinolin-7-ium hexafluorophosphate], the melting point is 120 to 122 °C.

For the molecule `COc1ccc2cc3[n+](cc2c1OCCn1cc(-c2ccc(S(N)(=O)=O)cc2)nn1)CCc1cc2c(cc1-3)OCO2` (as salt: phosphate) [Compound 26, 10-Methoxy-9–(2-(4–(4-sulfamoylphenyl)-1H-1,2,3-triazol-1-yl)ethoxy)-5,6-dihydro-[1,3]dioxolo[4,5-g]isoquinolino[3,2-a]isoquinolin-7-ium hexafluorophosphate], the melting point was 212 to 215 °C.

In turn, `COc1ccc2cc3[n+](cc2c1OCc1cn(CCCCCOc2ccc4ccc(=O)oc4c2)nn1)CCc1cc2c(cc1-3)OCO2` (as salt: phosphate) [Compound 44, 10-Methoxy-9-((1–(5-((2-oxo-2H-chromen-7-yl)oxy)pentyl)-1H-1,2,3-triazol-4-yl)methoxy)-5,6-dihydro-[1,3]dioxolo[4,5-g]isoquinolino[3,2-a]isoquinolin-7-ium hexafluorophosphate] yielded a melting point of 171 to 173 °C.

In turn, `COc1ccc2cc3[n+](cc2c1OCCCCn1cc(CCOc2ccc4ccc(=O)oc4c2)nn1)CCc1cc2c(cc1-3)OCO2` (as salt: phosphate) [Compound 38, 10-Methoxy-9–(4-(4–(2-((2-oxo-2H-chromen-7-yl)oxy)ethyl)-1H-1,2,3-triazol-1-yl)butoxy)-5,6-dihydro-[1,3]dioxolo[4,5-g]isoquinolino[3,2-a]isoquinolin-7-ium hexafluorophosphate] registered a melting point of 185 to 186 °C.

The molecule `COc1ccc2cc3[n+](cc2c1OCc1cn(-c2ccc4c(C)cc(=O)oc4c2)nn1)CCc1cc2c(cc1-3)OCO2` (as salt: phosphate) [Compound 45, 10-Methoxy-9-((1–(4-methyl-2-oxo-2H-chromen-7-yl)-1H-1,2,3-triazol-4-yl)methoxy)-5,6-dihydro-[1,3]dioxolo[4,5-g]isoquinolino[3,2-a]isoquinolin-7-ium hexafluorophosphate] displayed a melting point of 280 to 282 °C.

In the case of `COc1ccc2cc3[n+](cc2c1OCCCn1cc(COc2ccc4ccc(=O)oc4c2)nn1)CCc1cc2c(cc1-3)OCO2` (as salt: phosphate) [Compound 34, 10-Methoxy-9–(3-(4-(((2-oxo-2H-chromen-7-yl)oxy)methyl)-1H-1,2,3-triazol-1-yl)propoxy)-5,6-dihydro-[1,3]dioxolo[4,5-g]isoquinolino[3,2-a]isoquinolin-7-ium hexafluorophosphate], the melting point was 140 °C.

As to `COc1ccc2cc3[n+](cc2c1OCc1cn(-c2cccc(S(N)(=O)=O)c2)nn1)CCc1cc2c(cc1-3)OCO2` (as salt: phosphate) [Compound 40, 10-Methoxy-9-((1–(3-sulfamoylphenyl)-1H-1,2,3-triazol-4-yl)methoxy)-5,6-dihydro-[1,3]dioxolo[4,5-g]isoquinolino[3,2-a]isoquinolin-7-ium hexafluorophosphate], the melting point lay in the range of 195 to 198 °C.

On to `COc1ccc2cc3[n+](cc2c1OCCCn1cc(-c2ccc(S(N)(=O)=O)cc2)nn1)CCc1cc2c(cc1-3)OCO2` (as salt: phosphate) [Compound 28, 10-Methoxy-9–(3-(4–(4-sulfamoylphenyl)-1H-1,2,3-triazol-1-yl)propoxy)-5,6-dihydro-[1,3]dioxolo[4,5-g]isoquinolino[3,2-a]isoquinolin-7-ium hexafluorophosphate], for which the melting point was 205 to 208 °C.

Turning to `COc1ccc2cc3[n+](cc2c1OCCCn1cc(CCOc2ccc4ccc(=O)oc4c2)nn1)CCc1cc2c(cc1-3)OCO2` (as salt: phosphate) [Compound 35, 10-Methoxy-9–(3-(4–(2-((2-oxo-2H-chromen-7-yl)oxy)ethyl)-1H-1,2,3-triazol-1-yl)propoxy)-5,6-dihydro-[1,3]dioxolo[4,5-g]isoquinolino[3,2-a]isoquinolin-7-ium hexafluorophosphate], the melting point lay within 130 to 131 °C.
